We go through one molecule from patent US5663197A, “2-(1-hydroxyethyl)-5-hydroxynaphtho[2,3-b]furan-4,9-dione and antitumor agents comprising this compound” (priority 1992, dated 1997).

This experiment has as its system carcinogenic promotion (skin papillomas in mice). Briefly: Inhibition of two-step skin carcinogenesis in mice skin. The format is in vivo, mouse (female ICR). Particulars: DMBA initiator, TPA promoter, 20 weeks; FIG. 28 (NFD 85 nmol), FIG. 29 (lapacoal).

Description: Female ICR mice were used as test animals. Fifteen mice were housed in a cage and kept on a commercial pellet diet and drinking water ad libitum until the end of the experiment. The mice were purchased at their age of six-week-old. Dorsal hair of mice was shaved, and next day, 390 nmol of 7,12-dimethylbenz(a)anthracene (DMBA) in 0.1 ml acetone was applied, as an initiator, on the shaved back. One week later, 1.7 nmol of 12-O-tetradecanoylphorbol-13-acetate (TPA) in 0.1 ml acetone was applied, as a promoter, to the same place twice a week. This procedure was repeated for 20 weeks.
Mice were observed once a week for the number of papillomas larger than 1 mm, and the experimental results were given as the percentage of papilloma-bearing mice in each group and the number of papillomas per mouse.

As to `CC(C)=CCC1=C(O)C(=O)c2ccccc2C1=O` [lapacoal, reference compound], the “inhibitory effect on carcinogenic promotion in skin” value was “inhibitory effect”.
